According to EP4800012A1, “COMPOUND ACTING AS PARP7 INHIBITOR” (Dovetree Medicines Unus, Inc., priority 2023, dated 2025):

Columns and labels:
PARP7 [1] = biological target: T1, PARP7 (Homo sapiens, UniProt Q7Z3E1); assay: PARP7 TR-FRET binding inhibition (displacement of probe RBN011147); details: TR-FRET, Biotin-labeled probe RBN011147; read-out: PARP7 binding inhibition IC50
T1 construct: purchased BPS 80527
T1 sequence (Q7Z3E1 1-657): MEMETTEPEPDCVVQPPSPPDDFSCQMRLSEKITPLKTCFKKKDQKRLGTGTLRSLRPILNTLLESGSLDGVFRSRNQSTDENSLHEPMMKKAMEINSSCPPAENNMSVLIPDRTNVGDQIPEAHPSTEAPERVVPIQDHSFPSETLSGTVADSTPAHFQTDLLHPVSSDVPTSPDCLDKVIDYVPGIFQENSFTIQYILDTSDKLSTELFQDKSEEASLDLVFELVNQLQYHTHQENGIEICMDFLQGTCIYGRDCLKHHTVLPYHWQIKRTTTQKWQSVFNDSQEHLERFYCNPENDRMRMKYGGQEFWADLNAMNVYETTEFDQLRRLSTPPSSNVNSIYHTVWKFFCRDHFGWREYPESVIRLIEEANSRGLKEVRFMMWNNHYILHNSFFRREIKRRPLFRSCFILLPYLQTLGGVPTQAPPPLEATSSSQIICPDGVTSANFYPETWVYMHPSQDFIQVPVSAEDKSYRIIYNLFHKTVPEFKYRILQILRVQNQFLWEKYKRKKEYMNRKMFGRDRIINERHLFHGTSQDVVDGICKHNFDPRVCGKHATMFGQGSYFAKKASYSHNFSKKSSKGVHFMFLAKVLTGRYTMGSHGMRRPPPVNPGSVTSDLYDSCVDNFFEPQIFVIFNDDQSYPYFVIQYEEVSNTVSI
Procedure: The ability of the compound to substitute the probe RBN011147 (Wigle et al., 2020, Cell Chemical Biology 27, 877-887) was tested by a TR-FRET method, and IC50 was calculated to evaluate the binding ability of the compound to PARP7. […]

PARP7 [2] = biological target: T1, PARP7; assay: Inhibition of the compound on PARP7 protein activity (ADP-ribosylation, chemiluminescence); format: biochemical; details: Histone H1 coated plate, Biotin-Labeled NAD+, 2 h at room temperature, chemiluminescence; read-out: PARP7 activity inhibition IC50
PARP7 [3] = biological target: T1, PARP7; assay: PARP7 in vitro enzyme activity inhibition (chemiluminescence assay, selectivity test); format: biochemical; details: 6.25 nM of PARP7 solution, method of test example 1; read-out: PARP7 activity inhibition IC50
Procedure: (§1) Following the method in test example 1, the IC50 value of the inhibition of each compound on PARP7 activity were detected and obtained. Reference was made to the method in test example 1, except that the 6.25 nM of PARP7 solution in the ribosylation reaction step was replaced with a 5 nM of PARP1 solution or a 5 nM of PARP2. Similar to the 6.25 nM of PARP7 solution, the 5 nM of PARP1 solution and 5 nM of PARP2 solution were also formulated and obtained by using 1× Assay buffer.

PARP1 = PARP1 (Homo sapiens, UniProt P09874); assay: PARP1 in vitro enzyme activity inhibition (chemiluminescence assay); format: biochemical; details: 5 nM of PARP1 solution, method of test example 1; read-out: PARP1 activity inhibition IC50
Sequence of PARP1 (P09874 whole entry, species assumed): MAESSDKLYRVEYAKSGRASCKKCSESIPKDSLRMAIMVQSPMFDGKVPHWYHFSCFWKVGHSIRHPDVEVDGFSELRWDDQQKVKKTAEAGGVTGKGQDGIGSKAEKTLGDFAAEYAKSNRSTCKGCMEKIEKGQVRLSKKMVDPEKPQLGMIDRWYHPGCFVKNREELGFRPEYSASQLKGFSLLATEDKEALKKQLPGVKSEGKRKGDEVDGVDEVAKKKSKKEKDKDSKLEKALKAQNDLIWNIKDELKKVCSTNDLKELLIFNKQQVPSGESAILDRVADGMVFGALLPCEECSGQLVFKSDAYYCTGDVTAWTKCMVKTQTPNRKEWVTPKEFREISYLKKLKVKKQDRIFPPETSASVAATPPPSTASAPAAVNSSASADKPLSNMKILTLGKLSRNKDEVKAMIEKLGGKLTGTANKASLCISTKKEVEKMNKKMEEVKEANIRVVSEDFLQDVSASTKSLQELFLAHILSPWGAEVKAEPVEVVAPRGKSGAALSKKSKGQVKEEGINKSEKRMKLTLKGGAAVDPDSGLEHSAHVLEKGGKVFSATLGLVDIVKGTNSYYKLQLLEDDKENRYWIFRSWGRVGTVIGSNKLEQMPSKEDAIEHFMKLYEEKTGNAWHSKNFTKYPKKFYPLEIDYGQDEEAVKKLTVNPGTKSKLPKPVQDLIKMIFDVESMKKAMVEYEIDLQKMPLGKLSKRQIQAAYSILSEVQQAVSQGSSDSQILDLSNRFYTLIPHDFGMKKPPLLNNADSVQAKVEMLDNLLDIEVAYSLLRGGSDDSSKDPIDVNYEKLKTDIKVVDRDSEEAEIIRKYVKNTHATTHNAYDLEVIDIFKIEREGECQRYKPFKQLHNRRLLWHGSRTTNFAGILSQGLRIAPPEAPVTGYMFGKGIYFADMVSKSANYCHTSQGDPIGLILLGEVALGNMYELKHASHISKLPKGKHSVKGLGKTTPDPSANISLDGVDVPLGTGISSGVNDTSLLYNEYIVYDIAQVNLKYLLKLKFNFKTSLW
Procedure: as §1

NCI-H1373 cells = assay: Inhibition on NCI-H1373 cell proliferation (Cell-Titer-Glo); format: cell-based; details: Homo sapiens, 144 h; NCI-H1373 cells, incubation for 6 days, Cell-Titer-Glo; read-out: NCI-H1373 cell proliferation inhibition IC50
PARP2 = PARP2 (Homo sapiens, UniProt Q9UGN5); assay: PARP2 in vitro enzyme activity inhibition (chemiluminescence assay); format: biochemical; details: 5 nM of PARP2, method of test example 1; read-out: PARP2 activity inhibition IC50
Sequence of PARP2 (Q9UGN5 whole entry, species assumed): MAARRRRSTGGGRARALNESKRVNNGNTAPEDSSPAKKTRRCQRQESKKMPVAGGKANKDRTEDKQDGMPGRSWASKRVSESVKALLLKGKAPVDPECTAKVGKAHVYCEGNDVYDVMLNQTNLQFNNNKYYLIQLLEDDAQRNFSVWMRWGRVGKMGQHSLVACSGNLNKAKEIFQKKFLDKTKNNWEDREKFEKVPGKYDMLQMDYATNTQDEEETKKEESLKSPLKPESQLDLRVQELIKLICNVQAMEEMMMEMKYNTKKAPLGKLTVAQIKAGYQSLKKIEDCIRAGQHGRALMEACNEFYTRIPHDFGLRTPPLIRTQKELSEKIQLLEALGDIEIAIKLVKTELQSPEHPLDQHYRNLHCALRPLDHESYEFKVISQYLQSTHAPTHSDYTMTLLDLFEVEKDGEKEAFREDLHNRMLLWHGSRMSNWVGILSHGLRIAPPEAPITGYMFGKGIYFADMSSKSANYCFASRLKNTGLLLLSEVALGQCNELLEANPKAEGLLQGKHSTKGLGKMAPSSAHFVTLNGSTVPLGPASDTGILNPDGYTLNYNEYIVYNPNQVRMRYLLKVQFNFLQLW
Procedure: as §1

Row | Compound | IC50 (PARP7 [1]) [nM] | IC50 (PARP7 [2]) [nM] | IC50 (PARP7 [3]) [nM] | IC50 (PARP1) [nM] | IC50 (NCI-H1373 cells) [nM] | IC50 (PARP2) [nM]
1 | O=C(NCCC[C@@H](Nc1cn[nH]c(=O)c1C(F)(F)F)C(=O)NC1CCC1)c1ccc(-c2ncc(C(F)(F)F)s2)cc1 [Example 228] | < 10 | 3 to 10 | 3 to 10 | > 100 | < 300 | 3 to 10
2 | CNC(=O)[C@@H](CCCNC(=O)c1ccc(-c2ncc(C(F)(F)F)s2)cc1)Nc1cn[nH]c(=O)c1C(F)(F)F [Example 229] | 10 to 30 | < 3 | < 3 | 30 to 100 | < 300 | 10 to 30
3 | CN(C(=O)[C@@H](CCCNC(=O)c1ccc(-c2ncc(C(F)(F)F)s2)cc1)Nc1cn[nH]c(=O)c1C(F)(F)F)C1CCC1 [Example 230] | 30 to 100 | 3 to 10 | 3 to 10 | 30 to 100 | < 300 | 3 to 10
4 | CCNC(=O)C(CCCNC(=O)c1ccc(-c2ncc(C(F)(F)F)s2)cc1)Nc1cn[nH]c(=O)c1C(F)(F)F (stereo not drawn) [Example 231] | < 10 | < 3 | < 3 | 10 to 30 | < 300 | 3 to 10
5 | O=C(NCCCC(Nc1cn[nH]c(=O)c1C(F)(F)F)C(=O)NC1CCCOC1)c1ccc(-c2ncc(C(F)(F)F)s2)cc1 (stereo not drawn) [Example 235] | < 10 | < 3 | < 3 | 3 to 10 | 300 to 1000 | 3 to 10
6 | C[C@@H]1COCCN1C(=O)[C@@H](CCCNC(=O)c1ccc(-c2ncc(C(F)(F)F)s2)cc1)Nc1cn[nH]c(=O)c1C(F)(F)F [Example 238] | < 10 | < 3 | < 3 | 30 to 100 | 300 to 1000 | 10 to 30
7 | CC1(F)CN(C(=O)[C@@H](CCCNC(=O)c2ccc(-c3ncc(C(F)(F)F)s3)cc2)Nc2cn[nH]c(=O)c2C(F)(F)F)C1 [Example 242] | 10 to 30 | 3 to 10 | 3 to 10 | 30 to 100 | 1000 to 3000 | 3 to 10
8 | O=C(NCCC[C@@H](Nc1cn[nH]c(=O)c1C(F)(F)F)C(=O)Nc1ccccn1)c1ccc(-c2ncc(C(F)(F)F)s2)cc1 [Example 244] | 30 to 100 | < 3 | < 3 | 3 to 10 | > 3000 | 30 to 100
9 | COC1(C)CN(C(=O)[C@@H](CCCNC(=O)c2ccc(-c3ncc(C(F)(F)F)s3)cc2)Nc2cn[nH]c(=O)c2C(F)(F)F)C1 [Example 246] | < 10 | < 3 | < 3 | 10 to 30 | 1000 to 3000 | 3 to 10

The remaining lines, values ahead:

Row | IC50 (PARP7 [1]) [nM] | IC50 (PARP7 [2]) [nM] | IC50 (PARP7 [3]) [nM] | IC50 (PARP1) [nM] | IC50 (NCI-H1373 cells) [nM] | IC50 (PARP2) [nM] | Compound
10 | 10 to 30 | < 3 | < 3 | 3 to 10 | 300 to 1000 | 3 to 10 | C[C@H]1CCN(C(=O)[C@@H](CCCNC(=O)c2ccc(-c3ncc(C(F)(F)F)s3)cc2)Nc2cn[nH]c(=O)c2C(F)(F)F)C1 [Example 232]
11 | < 10 | < 3 | < 3 | 3 to 10 | 300 to 1000 | < 3 | CC1CN(C(=O)[C@@H](CCCNC(=O)c2ccc(-c3ncc(C(F)(F)F)s3)cc2)Nc2cn[nH]c(=O)c2C(F)(F)F)C1 [Example 233]
12 | < 10 | < 3 | < 3 | 10 to 30 | 300 to 1000 | 3 to 10 | CO[C@H]1CCN(C(=O)[C@@H](CCCNC(=O)c2ccc(-c3ncc(C(F)(F)F)s3)cc2)Nc2cn[nH]c(=O)c2C(F)(F)F)C1 [Example 237]
13 | 10 to 30 | < 3 | < 3 | 10 to 30 | 300 to 1000 | > 100 | N#C[C@@H]1CCN(C(=O)[C@@H](CCCNC(=O)c2ccc(-c3ncc(C(F)(F)F)s3)cc2)Nc2cn[nH]c(=O)c2C(F)(F)F)C1 [Example 239]
14 | 10 to 30 | < 3 | < 3 | 10 to 30 | 1000 to 3000 | 3 to 10 | O=C(NCCC[C@@H](Nc1cn[nH]c(=O)c1C(F)(F)F)C(=O)N1CC[C@H](F)C1)c1ccc(-c2ncc(C(F)(F)F)s2)cc1 [Example 241]
15 | < 10 | < 3 | < 3 | 3 to 10 | > 3000 | 3 to 10 | N#CC1CCN(C(=O)[C@@H](CCCNC(=O)c2ccc(-c3ncc(C(F)(F)F)s3)cc2)Nc2cn[nH]c(=O)c2C(F)(F)F)CC1 [Example 243]
16 | 10 to 30 | 3 to 10 | 3 to 10 | 10 to 30 | > 3000 | 30 to 100 | CC1(C#N)CN(C(=O)[C@@H](CCCNC(=O)c2ccc(-c3ncc(C(F)(F)F)s3)cc2)Nc2cn[nH]c(=O)c2C(F)(F)F)C1 [Example 247]
